In patent publication US12673954B2 (BRISTOL-MYERS SQUIBB COMPANY, priority 2021, dated 2026):
Where two headings read alike, the source gives them in different places.

Assays:
[1] = system: IRF pathway, THP1-Dual™ cells; experiment: STING reporter assay in THP1-Dual cells, IRF pathway (Lucia luciferase, QUANTI-Luc); format: cell-based, human; settings: THP1-Dual cells, 10% human plasma, 20 hours, Lucia luciferase, 100% activation = 100 μM cGAMP, read-out: IRF (EC50 μM)
From the text: (§1) THP1-Dual™ cells were derived from the human THP-1 monocyte cell line by stable integration of two inducible reporter constructs. To this end, THP1-Dual™ cells allow the simultaneous study of the NF-κB pathway, by monitoring the activity of SEAP, and the IRF pathway by assessing the activity of a secreted luciferase (Lucia). Both reporter proteins are readily measurable in the cell culture supernatant when using QUANTI-Blue™, a SEAP detection reagent, and QUANTI-Luc™, a luciferase detection reagent.
(§2) THP1-Dual™ cells induce the activation of NF-κB in response to STING agonists. They also trigger the IRF pathway upon stimulation with STING agonists, such as cGAMP. Here, the THP-1-Dual cells were used to assess STING specific binders for function on the cellular level.
(§3) Serial dilutions of compounds in DMSO were added to low volume 384 well plates at 100 nl/well using an ECHO acoustic dispenser (Labcyte, model 550) to achieve final starting concentration of 100 μM in cell suspension. […] One column of the plate was reserved for treatment with cGAMP at 100 μM for 100% activation calculation and one column for no treatment (DMSO only) for baseline activation. Plates were then incubated in 37° C. incubator at 5% CO2 for 20 hours.
(§4) Plates were read on the Envision (Perkin Elmer) at 620 nm wavelength (OD620). In the luciferase assay, 5 μl of Quantiluc (Invivogen, Rep-qlc2) is added to white 384 well plates seeded with THP1 cells and read at 5 minutes on the Envision (Perkin Elmer) using a luminescence protocol (RLU). 100% activation was determined by value (RLU) of THP-1 Dual STING cells stimulated with 100 μM cGAMP (Invivogen, cat #TLRL-NACGA23-5).

[2] = system: NF-κB pathway, THP1-Dual™ cells; experiment: STING reporter assay in THP1-Dual cells, NF-κB pathway (SEAP, QUANTI-Blue); format: cell-based, human; settings: THP1-Dual cells, 10% human plasma, 20 hours, SEAP, 100% activation = 100 μM cGAMP, read-out: NFkB (EC50 μM)
From the text: as §1, §2, §3, §4

| EC50 ([1]; Homo sapiens, THP1-Dual, 20 h) | EC50 ([2]; Homo sapiens, THP1-Dual, 20 h) | EC50 [1] | EC50 [2] | Compound |
| --- | --- | --- | --- | --- |
| 1.7 µM | 2 µM |  |  | COC(=O)c1cc(C)cc2cc(C(C)NC(=O)c3cnn4cccnc34)oc12 (racemic) [Example 96, Methyl 5-methyl-2-(1-(pyrazolo[1,5-a]pyrimidine-3-carboxamido)ethyl)benzofuran-7-carboxylate (racemic)] |
|  |  | 1.4 µM | 1.3 µM | CC(OC(=O)c1cc(F)cc2cc(CNC(=O)c3cnn4cccnc34)oc12)C(F)(F)F (single isomer, unassigned) [EXAMPLE 317, 1,1,1-Trifluoropropan-2-yl 5-fluoro-2-((pyrazolo[1,5-a]pyrimidine-3-carboxamido)methyl)benzofuran-7-carboxylate] |
|  |  | 4.3 µM | 4.5 µM | CC(OC(=O)c1cc(F)cc2cc(CNC(=O)c3cnn4cccnc34)oc12)C(F)(F)F (single isomer, unassigned) [EXAMPLE 318, 1,1,1-Trifluoropropan-2-yl 5-fluoro-2-((pyrazolo[1,5-a]pyrimidine-3-carboxamido)methyl)benzofuran-7-carboxylate] |
| 2.4 µM | 2.5 µM |  |  | COC(OC(=O)c1cc(F)cc2cc(CNC(=O)c3cnn4cccnc34)oc12)C(F)(F)F (single isomer, unassigned) [EXAMPLE 319, 2,2,2-Trifluoro-1-methoxyethyl 5-fluoro-2-((pyrazolo[1,5-a]pyrimidine-3-carboxamido)methyl)benzofuran-7-carboxylate] |
|  |  | 1.4 µM | 1.4 µM | COC(OC(=O)c1cc(F)cc2cc(CNC(=O)c3cnn4cccnc34)oc12)C(F)(F)F (single isomer, unassigned) [EXAMPLE 320, 2,2,2-Trifluoro-1-methoxyethyl 5-fluoro-2-((pyrazolo[1,5-a]pyrimidine-3-carboxamido)methyl)benzofuran-7-carboxylate] |
|  |  | 0.3 µM | 0.38 µM | O=C(OC1CC(F)(F)C1(F)F)c1cc(F)cc2cc(CNC(=O)c3cnn4cccnc34)oc12 (single isomer, unassigned) [EXAMPLE 321, 2,2,3,3-Tetrafluorocyclobutyl 5-fluoro-2-((pyrazolo[1,5-a]pyrimidine-3-carboxamido)methyl)benzofuran-7-carboxylate] |
|  |  | 2.2 µM | 3.3 µM | O=C(OC1CC(F)(F)C1(F)F)c1cc(F)cc2cc(CNC(=O)c3cnn4cccnc34)oc12 (single isomer, unassigned) [EXAMPLE 322, 2,2,3,3-Tetrafluorocyclobutyl 5-fluoro-2-((pyrazolo[1,5-a]pyrimidine-3-carboxamido)methyl)benzofuran-7-carboxylate] |
| 0.75 µM |  |  | 0.7 µM | CCOC(OC(=O)c1cc(F)cc2cc(CNC(=O)c3cnn4cccnc34)oc12)C(F)F (single isomer, unassigned) [EXAMPLE 323, 1-Ethoxy-2,2-difluoroethyl 5-fluoro-2-((pyrazolo[1,5-a]pyrimidine-3-carboxamido)methyl)benzofuran-7-carboxylate] |
|  |  | 1.5 µM | 1.7 µM | CCOC(OC(=O)c1cc(F)cc2cc(CNC(=O)c3cnn4cccnc34)oc12)C(F)F (single isomer, unassigned) [EXAMPLE 324, 1-Ethoxy-2,2-difluoroethyl 5-fluoro-2-((pyrazolo[1,5-a]pyrimidine-3-carboxamido)methyl)benzofuran-7-carboxylate] |

The remaining lines, values behind:

| Compound | EC50 ([1]; Homo sapiens, THP1-Dual, 20 h) | EC50 ([2]; Homo sapiens, THP1-Dual, 20 h) | EC50 [1] | EC50 [2] |
| --- | --- | --- | --- | --- |
| Cc1cc(C(=O)O)c2oc(C(C)NC(=O)c3cnn4cccnc34)cc2c1 (racemic) [EXAMPLE 161, 5-Methyl-2-(1-(pyrazolo[1,5-a]pyrimidine-3-carboxamido)ethyl)benzofuran-7-carboxylic acid (racemic)] | 108 µM | 138 µM |  |  |
| Cc1cc(C(=O)O)c2oc(C(C)NC(=O)c3cnn4cccnc34)cc2c1 (racemic) [EXAMPLE 186, 5-Methyl-2-(1-(pyrazolo[1,5-a]pyrimidine-3-carboxamido)ethyl)benzofuran-7-carboxylic acid] |  |  | 84 µM | > 100 µM |
| CCC(C)OC(=O)c1cccc2cc(CN3CCc4ccncc4C3=O)oc12 (racemic) [EXAMPLE 208, Sec-butyl 2-((1-oxo-3,4-dihydro-2,7-naphthyridin-2(1H)-yl)methyl)benzofuran-7-carboxylate] | 33 µM | 31 µM |  |  |
| CCOC(OC(=O)c1cccc2cc(CN3CCc4ccncc4C3=O)oc12)C(F)(F)F (racemic) [EXAMPLE 210, 1-Ethoxy-2,2,2-trifluoroethyl 2-((1-oxo-3,4-dihydro-2,7-naphthyridin-2(1H)-yl)methyl)benzofuran-7-carboxylate] | 30 µM | 25 µM |  |  |
| CCOC(=O)OC(C)OC(=O)c1cc(Cl)cc2cc(CNC(=O)c3cnn4cccnc34)oc12 (racemic) [EXAMPLE 261, 1-((Ethoxycarbonyl)oxy)ethyl 5-chloro-2-((pyrazolo[1,5-a]pyrimidine-3-carboxamido)methyl)benzofuran-7-carboxylate] | 0.95 µM | 0.82 µM |  |  |
| COc1cc(C(=O)OC(OC)C(F)(F)F)c2oc(CNC(=O)c3cnn4cccnc34)cc2c1 (racemic) [EXAMPLE 281, 2,2,2-Trifluoro-1-methoxyethyl 5-methoxy-2-((pyrazolo[1,5-a]pyrimidine-3-carboxamido)methyl)benzofuran-7-carboxylate] | 11 µM | 14 µM |  |  |
| COC(=O)c1cc(C)cc2c(Cl)c(C(C)NC(=O)c3cnn4cccnc34)oc12 (single isomer, unassigned) [EXAMPLE 120, Methyl-3-chloro-5-methyl-2-(1-(pyrazolo[1,5-a]pyrimidine-3-carboxamido)ethyl)benzofuran-7-carboxylate] | 2.7 µM | 3.2 µM |  |  |
| CC(OC(=O)c1cccc2cc(CN3CCc4ccncc4C3=O)oc12)C(F)(F)F (single isomer, unassigned) [EXAMPLE 307, 1,1,1-Trifluoropropan-2-yl 2-((1-oxo-3,4-dihydro-2,7-naphthyridin-2(1H)-yl)methyl)benzo-furan-7-carboxylate] |  |  | 7.7 µM | 8.9 µM |
| CC(OC(=O)c1cccc2cc(CN3CCc4ccncc4C3=O)oc12)C(F)(F)F (single isomer, unassigned) [EXAMPLE 308, 1,1,1-Trifluoropropan-2-yl 2-((1-oxo-3,4-dihydro-2,7-naphthyridin-2(1H)-yl)methyl)benzo-furan-7-carboxylate] |  |  | 25 µM | 30 µM |
| CC(OC(=O)c1ccc(F)c2cc(CNC(=O)c3cnn4cccnc34)oc12)C(F)(F)F (single isomer, unassigned) [EXAMPLE 309, 1,1,1-Trifluoropropan-2-yl 4-fluoro-2-((pyrazolo[1,5-a]pyrimidine-3-carboxamido)methyl)benzofuran-7-carboxylate] |  |  | 6.1 µM | 7.2 µM |
| CC(OC(=O)c1ccc(F)c2cc(CNC(=O)c3cnn4cccnc34)oc12)C(F)(F)F (single isomer, unassigned) [EXAMPLE 310, 1,1,1-Trifluoropropan-2-yl 4-fluoro-2-((pyrazolo[1,5-a]pyrimidine-3-carboxamido)methyl)benzofuran-7-carboxylate] |  |  | 37 µM | 56 µM |
| COC(OC(=O)c1cc(F)cc2cc(CNC(=O)c3cnc4cccnn34)oc12)C(F)(F)F (single isomer, unassigned) [EXAMPLE 313, 2,2,2-Trifluoro-1-methoxyethyl 5-fluoro-2-((imidazo[1,2-b]pyridazine-3-carboxamido)methyl)benzofuran-7-carboxylate] | 3.1 µM | 3 µM |  |  |
| COC(OC(=O)c1cc(F)cc2cc(CNC(=O)c3cnc4cccnn34)oc12)C(F)(F)F (single isomer, unassigned) [EXAMPLE 314, 2,2,2-Trifluoro-1-methoxyethyl 5-fluoro-2-((imidazo[1,2-b]pyridazine-3-carboxamido)methyl)benzofuran-7-carboxylate] |  |  | 1.9 µM | 1.9 µM |
| CC(OC(=O)c1cc(F)cc2cc(CNC(=O)c3cnc4cccnn34)oc12)C(F)(F)F (single isomer, unassigned) [EXAMPLE 315, 1,1,1-Trifluoropropan-2-yl 5-fluoro-2-((imidazo[1,2-b]pyridazine-3-carboxamido)methyl)benzofuran-7-carboxylate] |  |  | 2.1 µM | 1.9 µM |
| CC(OC(=O)c1cc(F)cc2cc(CNC(=O)c3cnc4cccnn34)oc12)C(F)(F)F (single isomer, unassigned) [EXAMPLE 316, 1,1,1-Trifluoropropan-2-yl 5-fluoro-2-((imidazo[1,2-b]pyridazine-3-carboxamido)methyl)benzofuran-7-carboxylate] |  |  | 4.8 µM | 5.9 µM |
